Several values for one entry are separate records, joined by “and”; a condition that tells them apart may be missing. Equal entries are not always repeated.
Key:
[1] = test system: PgpB-liposomes; test: proteoliposome permeabilisation assay (BCECF), PgpB-liposomes; assay type: biochemical, Escherichia coli; conditions: EntC
[2] = test system: EfΔbacA cells (pIL252 empty vector); test: spot assay on bacA-deleted strain; assay type: cell-based, Enterococcus faecalis; conditions: spot on BHI agar
[3] = test system: E. faecalis EfΔbacA cells expressing BacAef K209A D106A D110A; test: survival test; assay type: cell-based, Enterococcus faecalis; conditions: 0.5 μM EntC, 30 min, 37 °C, p ≤ 0.0001, three experiments
[4] = test system: L. lactis IL1403; test: spot-on-lawn antibacterial assay, L. lactis; assay type: cell-based, Lactococcus lactis; conditions: 6 μl droplets, L. lactis IL1403, M17G agar, overnight
[5] = biological target: BacAef R172A (Enterococcus faecalis, UniProt A0ACD6TE02, R184A); test: ITC, BacAef R172A; assay type: binding; conditions: 20 °C
Protocol: (§1) The experiments were carried out at 20 °C.

[6] = test system: E. faecalis EfΔbacA cells expressing BacAef; test: survival test; assay type: cell-based, Enterococcus faecalis; conditions: 0.5 μM EntC, 30 min
[7] = biological target: T1, BacAef (Enterococcus faecalis, UniProt A0ACD6TE02); test: DSS crosslinking; assay type: binding; conditions: BacAef and peptide 17 μM each, DSS 100- or 1000-fold excess, 30 min, 4 °C
Protocol: Crosslinking experiments were performed using the amine-reactive, membrane-permeable, and non-cleavable crosslinker disuccinimidyl suberate (DSS) purchased from Sigma. EntC peptides and BacA protein were mixed at equimolar concentrations (17 μM) in buffer D in the presence of an excess of DSS crosslinker (1000-fold or 100-fold) in a final reaction volume of 20 μl. The reaction was incubated for 30 min at 4°C, and any unreacted DSS was quenched with 50 mM Tris-HCl. After separation on a 12% acrylamide gel, proteins were electrotransferred onto polyvinylidene difluoride (PVDF) membrane, and BacA was detected using peroxidase-coupled anti-His tag antibody (Penta-His HRP conjugate from Qiagen, RRID: AB_3699318) by chemiluminescence detection (Western Lightning Plus-ECL, PerkinElmer) using the ChemiDoc MP system (Bio-Rad).

[8] = biological target: T2, BacAec (Escherichia coli, UniProt P60932); conditions: titration of EntC into BacAec
T2 sequence (P60932 whole entry): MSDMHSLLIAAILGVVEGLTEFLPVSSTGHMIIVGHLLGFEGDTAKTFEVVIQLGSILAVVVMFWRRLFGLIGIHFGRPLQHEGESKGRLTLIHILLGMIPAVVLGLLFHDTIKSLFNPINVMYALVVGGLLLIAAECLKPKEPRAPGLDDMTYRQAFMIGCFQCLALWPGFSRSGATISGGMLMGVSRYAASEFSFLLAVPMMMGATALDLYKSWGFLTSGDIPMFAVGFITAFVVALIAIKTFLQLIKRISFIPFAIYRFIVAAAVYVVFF
Protocol: ITC experiments were performed with an ITC200 isothermal titration calorimeter from MicroCal (Malvern Panalytical, Malvern, UK). The experiments were carried out at 20 °C. The protein concentration in the microcalorimeter cell (0.2 ml) was 33 μM. Nineteen 2-μl injections of peptides at 400 μM were performed at intervals of 240 s while stirring at 500 rpm. To limit buffer mismatching effect between the cell and the syringe, and the heat-of-dilution effect for having glycerol in the protein solution, the latter were extensively dialyzed, prior to the ITC measurement, in a buffer containing 20 mM Tris-HCl pH 7.4, 200 mM NaCl, 0.1% DDM, to remove glycerol. Then, the dialysis buffer was used to dilute the EntC peptides to further limit buffer mismatching. The experimental data were fitted to theoretical titration curves with the software supplied by MicroCal (ORIGIN). This software uses the relationship between the heat generated by each injection and ΔH (enthalpy change in kcal/mol), Ka (the association binding constant in M^−1), n (the number of binding sites), total protein concentration and free and total ligand concentrations.

[9] = biological target: T1, BacAef; test: UppS-coupled C55-PP phosphatase assay in liposomes, BacAef; assay type: biochemical; conditions: DOPC:DOPG:DOPE liposomes, 20 mM HEPES pH 7.5, 37 °C, 10 min, TLC
Protocol: The reconstitution of BacA and PgpB in liposomes was achieved through adapted protocols previously described ([48]). Liposomes were prepared by rehydrating a lipid film of DOPC: DOPG: DOPE (3 mg: 0.75 mg: 1.25 mg) after 4 h of desiccation by adding 1 ml of buffer (20 mM HEPES, pH 7.5, 50 mM NaCl, 15% glycerol). […] The lipid suspension underwent 10 freeze-thaw cycles in liquid nitrogen and was extruded through a 100 nm polycarbonate membrane (Millipore). Protein reconstitution was performed by destabilizing the liposomes with 5.5 mM Triton X-100 for 15 min. The protein was added at a final concentration of 15 μg/ml and the mixture was incubated at 4 °C for 15 min.
The liposomes were used to measure the C55-PP phosphatase activity of BacA in a membrane environment as follows. For each kinetic assay, 5 μl of a reaction mixture containing 20 μM C15-PP, 20 μM [^14C]C5-PP, 180 μM C5-PP in 20 mM HEPES, pH 7.5, 50 mM NaCl, and 15% glycerol were mixed with 5 μl of protein-free liposomes (as a control) or BacA-containing liposomes. The mixture was then supplemented with UppS at a final concentration of 0.2 mg/ml to initiate the enzymatic synthesis of C55-PP. The EntC peptides were added at various concentrations from a water solution. […] Substrates and products were separated and quantified by thin-layer chromatography as previously described for C55-PP phosphatase assay in detergent.

[10] = test system: E. faecalis EfΔbacA cells expressing BacAef R172A; test: survival test; assay type: cell-based, Enterococcus faecalis; conditions: 0.5 μM EntC, 30 min, 37 °C, p ≤ 0.0001, three experiments
[11] = biological target: T2, BacAec; conditions: DDM micelles
Protocol: The C55-PP phosphatase assays were performed in a 10-μl reaction mixture containing 20 mM Tris-HCl, pH 7.4, 400 μM CaCl2, 150 mM NaCl, 0.1% (w/v) DDM and 50 μM radiolabeled [^14C]C55-PP (900 Bq). The BacA concentration was adjusted in order to achieve less than 30% substrate hydrolysis. The mixture was incubated for 10 min at 37 °C, and the reaction was stopped by freezing in liquid nitrogen. Substrates and products were separated by thin-layer chromatography on precoated silica gel 60 plates (Merck) using 1-propanol/ammonium hydroxide/water (6:3:1, v/v/v) as the mobile phase. Radioactive spots were located and quantified using a radioactivity scanner (model Multi-Tracermaster LB285, Berthold-France). When the phosphatase activity was tested at different pH values, the following buffers were used at 20 mM: sodium acetate (pH 4–7) or Tris-HCl (pH 7–8). In the EDTA assay, the protein was pre-treated with 200 μM EDTA. For pH and EDTA assays, CaCl2 was omitted from the reaction buffer.

[12] = test system: E. faecalis EfΔbacA cells expressing catalytically inactive variants of BacAef (E20A, S26A, R172A); test: spot-on-lawn assay, catalytic site mutants; assay type: cell-based, Enterococcus faecalis
[13] = test system: E. faecalis; conditions: ref [17]; cited from earlier work
[14] = test system: E. faecalis EfΔbacA cells expressing BacAef variants (K209A variants); test: spot-on-lawn assay, D106/D110/K209 variants; assay type: cell-based, Enterococcus faecalis; conditions: compared to wild-type BacAef
[15] = test system: E. faecalis cells; test: growth prevention in liquid culture; assay type: cell-based, Enterococcus faecalis
[16] = test system: BacAef-liposomes; conditions: 5 μM EntC, internal pH 8, external pH 6, peptide:lipid c.a. 1:1300, without EntC 1.10^-4 sec^-1
[17] = liposome permeabilisation assay (BCECF), protein-free; assay type: biochemical; conditions: 5 μM EntC, internal pH 8, external pH 6
[18] = test system: E. faecalis EfΔbacA cells expressing BacAef D106A D110A; test: survival test; assay type: cell-based, Enterococcus faecalis; conditions: 0.5 μM EntC, 30 min, 37 °C, three experiments
[19] = biological target: BacAef K209A (Enterococcus faecalis, UniProt A0ACD6TE02, K221A); test: ITC, BacAef K209A; assay type: binding; conditions: 20 °C
Protocol: as §1

[20] = biological target: BacAef K209A D110A D106A; test: ITC, BacAef K209A D110A D106A; assay type: binding, Enterococcus faecalis; conditions: 20 °C, 400 μM into [BacAef K209A D110A D106A] 33 μM, pH 7.4, 0.1% DDM, at least triplicate
Protocol: as §1

[21] = test system: EfΔbacA cells carrying pIL:bacAef; test: spot assay on bacA-complemented strain; assay type: cell-based, Enterococcus faecalis; conditions: spot on BHI agar
[22] = test system: E. faecalis EfΔbacA cells expressing BacAef K209A; test: survival test; assay type: cell-based, Enterococcus faecalis; conditions: 0.5 μM EntC, 30 min, 37 °C, p ≤ 0.0001, three experiments
[23] = biological target: BacAef E20A (Enterococcus faecalis, UniProt A0ACD6TE02, E32A); test: ITC, BacAef E20A; assay type: binding; conditions: 20 °C
Protocol: as §1

[24] = test system: E. faecalis (V583-derivative strain, WT); assay type: cell-based, Enterococcus faecalis; conditions: 6 μl droplets on a lawn of E. faecalis, BHI 0.75% agar, overnight; representative of three independent experiments
[25] = test system: E. faecalis EfΔbacA cells expressing BacAef S26A; test: survival test; assay type: cell-based, Enterococcus faecalis; conditions: 0.5 μM EntC, 30 min, 37 °C, p ≤ 0.01, three experiments

Enterocin C [EntC]
membrane permeabilization of PgpB-liposomes [1]: no permeabilization effect | susceptibility of EfΔbacA strain [2]: full resistance | % of survival [3]: 54% and 54 ± 11 ^d % | antibacterial activity (spot-on-lawn), L. lactis [4]: sensitivity to both bacteriocins | n ([5]; 400 μM into [BacAef R172A] 33 μM): 0.30 ± 0.03 | Kd ([5]; 400 μM into [BacAef R172A] 33 μM, pH 7.4, 0.1% DDM, at least triplicate): 1610 ± 650 nM | -TΔS ([5]; into [BacAef R172A]): 3.6 kcal/mol | ΔG ([5]; into [BacAef R172A]): -7.8 kcal/mol | ΔH ([5]; into [BacAef R172A]): -11.4 kcal/mol | % of survival ([6]; 37 °C, BHI, CFU vs same cells without EntC, three independent experiments): <1% | cells killed ([6]; exponentially growing cells expressing wild-type BacAef): more than 99% | crosslinked complex band with BacAef (SDS-PAGE, western blot) [7]: two faint bands appeared above the BacA monomer | binding to BacAec (ITC) [8]: no binding | IC50 [9]: 1200 ± 100 nM | % of survival [10]: 7.8% and 7.8 ± 0.8 ^d % | inhibition of BacAec C55-PP phosphatase activity [11]: not inhibited | susceptibility of EfΔbacA expressing catalytic site mutant alleles [12]: restored with a plasmid expressing wild-type bacAef or any of the three catalytic site mutant alleles, although a slight decrease of the susceptibility was observed with R172A variant | activity against E. faecalis [13]: active against the opportunistic pathogen E. faecalis | susceptibility of EfΔbacA expressing K209A variants [14]: small reduction in susceptibility | concentration required to prevent the growth of E. faecalis cells ([15]; BHI): 100 nM | concentration required to prevent the growth of E. faecalis cells ([15]; M17): 50 nM | concentration required to prevent the growth of E. faecalis cells ([15]; MRS): 2 nM | rate of decrease of BCECF fluorescence [16]: about 6.10^-4 sec^-1 | membrane permeabilization of protein-free liposomes [17]: did not affect protein-free liposomes | % of survival [18]: 4.0 ± 3.0% | n ([19]; 400 μM into [BacAef K209A] 33 μM): 0.46 ± 0.02 | Kd ([19]; 400 μM into [BacAef K209A] 33 μM, pH 7.4, 0.1% DDM, at least triplicate): 1840 ± 335 nM | -TΔS ([19]; into [BacAef K209A]): 0.1 kcal/mol | ΔH ([19]; into [BacAef K209A]): -8.3 kcal/mol | KD [20]: No binding | susceptibility of EfΔbacA strain with ectopic bacA [21]: fully restored | % of survival [22]: 11% and 11 ± 1.0 ^d % | n ([23]; 400 μM into [BacAef E20A] 33 μM): 0.69 ± 0.01 | Kd ([23]; 400 μM into [BacAef E20A] 33 μM, pH 7.4, 0.1% DDM, at least triplicate): 190 ± 40 nM | -TΔS ([23]; into [BacAef E20A]): 13.0 kcal/mol | ΔG ([23]; into [BacAef E20A]): -9 kcal/mol | ΔH ([23]; into [BacAef E20A]): -22.0 kcal/mol | antibacterial activity (spot-on-lawn), E. faecalis [24]: E. faecalis was only susceptible to EntC | % of survival [25]: 6.8% and 6.8 ± 2.4 ^c %
